Source: patent publication US20040259926A1, “3-Aryloxy and 3-heteroaryloxy substituted benzo[b]thiophenes as therapeutic agents” (priority 2003, published 2004)
Where a name gives a salt, the structure may show the parent alone.

Test system: not given
Test: not given
Settings: not given

Row | Compound | melting point
1 | COc1cc2sc(C(=O)Nc3nnn[nH]3)c(OCc3ccc4ccccc4c3)c2cc1OC [Example C.9, 5,6-Dimethoxy-3-(naphthalen-2-ylmethoxy)-benzo[b]thiophene-2-carboxylic acid (1H-tetrazol-5-yl)-amide] | 204 °C
2 | COc1cc2c(Oc3ccc(C4CCCCC4)cc3)c(C(=O)N(C)c3nn[nH]n3)sc2cc1C [Example K.2, 3-(4-Cyclohexyl-phenoxy)-5-methoxy-6-methyl-benzo[b]thiophene-2-carboxylic acid methyl-(2H-tetrazol-5-yl)-amide] | 197 to 198 °C

Target: T1, PI3Kγ (recombinant p101/p110γ protein) (Homo sapiens, UniProt P48736)
T1 construct: HA; made in house; host or cells: Spodoptera frugiperda (Sf9) cells, baculovirus co-infection
T1 sequence (P48736 whole entry, species assumed): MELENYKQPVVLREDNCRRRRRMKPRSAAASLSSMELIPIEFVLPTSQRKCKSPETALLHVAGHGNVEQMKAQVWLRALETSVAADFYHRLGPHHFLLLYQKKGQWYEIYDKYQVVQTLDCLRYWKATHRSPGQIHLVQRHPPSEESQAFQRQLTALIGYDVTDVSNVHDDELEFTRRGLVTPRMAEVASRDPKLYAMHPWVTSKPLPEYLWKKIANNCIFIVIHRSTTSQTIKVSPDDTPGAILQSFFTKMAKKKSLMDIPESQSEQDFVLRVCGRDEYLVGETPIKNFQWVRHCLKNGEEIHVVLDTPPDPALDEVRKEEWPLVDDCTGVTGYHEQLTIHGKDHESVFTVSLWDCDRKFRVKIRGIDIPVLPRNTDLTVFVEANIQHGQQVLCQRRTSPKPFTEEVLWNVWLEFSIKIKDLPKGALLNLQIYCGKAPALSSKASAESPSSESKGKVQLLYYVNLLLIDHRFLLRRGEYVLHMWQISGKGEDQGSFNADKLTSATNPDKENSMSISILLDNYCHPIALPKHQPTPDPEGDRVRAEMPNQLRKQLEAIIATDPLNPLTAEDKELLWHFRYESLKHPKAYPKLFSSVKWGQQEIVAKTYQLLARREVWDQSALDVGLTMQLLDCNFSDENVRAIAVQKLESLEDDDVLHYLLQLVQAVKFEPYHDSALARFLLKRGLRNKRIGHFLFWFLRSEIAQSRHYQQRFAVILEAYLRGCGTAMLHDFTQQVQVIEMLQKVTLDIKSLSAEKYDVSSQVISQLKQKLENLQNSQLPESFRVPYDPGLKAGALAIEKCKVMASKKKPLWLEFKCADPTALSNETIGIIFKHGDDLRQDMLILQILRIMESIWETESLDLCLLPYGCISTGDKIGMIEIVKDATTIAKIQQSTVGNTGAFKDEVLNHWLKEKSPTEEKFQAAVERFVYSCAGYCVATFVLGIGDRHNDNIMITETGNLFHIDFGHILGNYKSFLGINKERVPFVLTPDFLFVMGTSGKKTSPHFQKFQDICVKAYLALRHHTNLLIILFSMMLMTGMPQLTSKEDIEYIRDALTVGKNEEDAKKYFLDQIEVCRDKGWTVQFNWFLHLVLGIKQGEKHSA
T1 sequence (Q8WYR1 whole entry partner, species assumed): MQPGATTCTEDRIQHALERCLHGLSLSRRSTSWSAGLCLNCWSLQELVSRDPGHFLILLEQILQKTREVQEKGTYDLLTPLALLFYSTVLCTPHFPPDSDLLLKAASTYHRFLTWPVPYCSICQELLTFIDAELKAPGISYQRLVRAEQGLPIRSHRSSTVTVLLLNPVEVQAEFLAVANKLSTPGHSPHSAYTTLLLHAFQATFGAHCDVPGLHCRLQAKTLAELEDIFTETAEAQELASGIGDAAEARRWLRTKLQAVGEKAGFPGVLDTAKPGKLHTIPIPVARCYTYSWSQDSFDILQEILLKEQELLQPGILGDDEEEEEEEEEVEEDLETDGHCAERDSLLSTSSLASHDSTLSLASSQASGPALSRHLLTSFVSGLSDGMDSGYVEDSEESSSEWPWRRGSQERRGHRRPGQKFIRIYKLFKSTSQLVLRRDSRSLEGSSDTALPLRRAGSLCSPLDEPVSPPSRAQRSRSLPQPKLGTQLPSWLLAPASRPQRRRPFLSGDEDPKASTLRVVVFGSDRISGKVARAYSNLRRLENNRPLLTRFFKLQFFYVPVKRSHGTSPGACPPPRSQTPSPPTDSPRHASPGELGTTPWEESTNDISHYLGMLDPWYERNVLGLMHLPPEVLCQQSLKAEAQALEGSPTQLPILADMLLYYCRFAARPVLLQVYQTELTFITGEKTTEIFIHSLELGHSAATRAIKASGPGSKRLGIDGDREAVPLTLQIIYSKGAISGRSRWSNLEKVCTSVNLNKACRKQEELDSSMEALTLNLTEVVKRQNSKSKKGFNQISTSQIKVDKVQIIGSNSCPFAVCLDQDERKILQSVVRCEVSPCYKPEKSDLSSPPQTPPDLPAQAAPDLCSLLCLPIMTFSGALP
Test: PI3Kγ In Vitro Kinase Assay
Assay type: biochemical
Settings: purified recombinant p101/p110γ with G protein β1/γ2 subunits; 20 μM ATP, [γ-32P-ATP]; 25 μM PIP2 lipid micelles; 20 minutes at room temperature
Method in brief: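 Baculovirus/Sf9-expressed p101/p110γ (~2.7 nM) with Gβ1/γ2 (~57.7 nM) in HEPES/NaCl/EGTA/DTT buffer; 20 μM ATP plus [γ-32P]ATP, micelles of 25 μM PIP2, 300 μM PE, 10 mM MgCl2. Reactions ran 20 minutes at room temperature; radiolabelled PIP3 captured on glass-fibre filters and counted for IC50.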

Row | Compound | IC50
3 | COc1cc2sc(C(=O)Nc3nnn[nH]3)c(OCCc3ccc(N(C)C)cc3)c2cc1OC [Example C.27, 3-[2-(4-Dimethylamino-phenyl)-ethoxy]-5,6-dimethoxy-benzo[b]thiophene-2-carboxylic acid (1H-tetrazol-5-yl)-amide] | 185 nM
4 | COc1cc2sc(C(=O)Nc3nnn[nH]3)c(OCc3ccc4c(c3)CCCC4)c2cc1OC [Example C.28, 5,6-Dimethoxy-3-(5,6,7,8-tetrahydro-naphthalen-2-ylmethoxy)-benzo[b]thiophene-2-carboxylic acid (1H-tetrazol-5-yl)-amide] | 185 nM
5 | COc1cc2sc(C(=O)Nc3nnn[nH]3)c(O[C@@H](C)Cc3ccccc3)c2cc1OC [Example C.29, 5,6-Dimethoxy-3-((S)-1-methyl-2-phenyl-ethoxy)-benzo[b]thiophene-2-carboxylic acid (1H-tetrazol-5-yl)-amide] | 145 nM
6 | COc1cc2sc(C(=O)Nc3nnn[nH]3)c(OCc3ccc(C4CCCCC4)cc3)c2cc1OC [Example C.30, 3-(4-Cyclohexyl-benzyloxy)-5,6-dimethoxy-benzo[b]thiophene-2-carboxylic acid (1H-tetrazol-5-yl)-amide] | 134 nM
7 | COc1cc2sc(C(=O)Nc3nnn[nH]3)c(OCc3cc(C(C)(C)C)cc(C(C)(C)C)c3)c2cc1OC [Example C.31, 3-(3,5-Di-tert-butyl-benzyloxy)-5,6-dimethoxy-benzo[b]thiophene-2-carboxylic acid (1H-tetrazol-5-yl)-amide] | 123 nM
8 | COc1cc2sc(C(=O)Nc3nnn[nH]3)c(OCCc3cc(C)cc(C)c3)c2cc1OC [Example C.32, 3-[2-(3,5-Dimethyl-phenyl)-ethoxy]-5,6-dimethoxy-benzo[b]thiophene-2-carboxylic acid (1H-tetrazol-5-yl)-amide] | 117 nM
9 | COc1cc2sc(C(=O)Nc3nnn[nH]3)c(OCCCc3ccccc3)c2cc1OC [Example C.33, 5,6-Dimethoxy-3-(3-phenyl-propoxy)-benzo[b]thiophene-2-carboxylic acid (1H-tetrazol-5-yl)-amide] | 115 nM
10 | COc1cc2sc(C(=O)Nc3nnn[nH]3)c(OCC(C)(C)c3ccccc3)c2cc1OC [Example C.34, 5,6-Dimethoxy-3-(2-methyl-2-phenyl-propoxy)-benzo[b]thiophene-2-carboxylic acid (1H-tetrazol-5-yl)-amide] | 84 nM
11 | COc1cc2sc(C(=O)Nc3nnn[nH]3)c(OC[C@H](C)c3ccccc3)c2cc1OC [Example C.35, 5,6-Dimethoxy-3-((R)-2-phenyl-propoxy)-benzo[b]thiophene-2-carboxylic acid (1H-tetrazol-5-yl)-amide] | 42 nM
12 | COc1cc2sc(C(=O)Nc3nn[nH]n3)c(Oc3ccccc3)c2cc1C [Example D.1, 6-Methoxy-5-methyl-3-phenoxy-benzo[b]thiophene-2-carboxylic acid (2H-tetrazol-5-yl)-amide] | 41 nM
13 | COc1cc2sc(C(=O)Nc3nn[nH]n3)c(Oc3cccc(C=O)c3)c2cc1C [Example D.2, 3-(3-Formyl-phenoxy)-6-methoxy-5-methyl-benzo[b]thiophene-2-carboxylic acid (2H-tetrazol-5-yl)-amide] | 150 nM
14 | COc1cc2sc(C(=O)Nc3nn[nH]n3)c(Oc3cccc(C#N)c3)c2cc1C [Example D.3, 3-(3-Cyano-phenoxy)-6-methoxy-5-methyl-benzo[b]thiophene-2-carboxylic acid (2H-tetrazol-5-yl)-amide] | 275 nM
15 | CCOc1ccc(Oc2c(C(=O)Nc3nn[nH]n3)sc3cc(OC)c(C)cc23)cc1 [Example D.5, 3-(4-Ethoxy-phenoxy)-6-methoxy-5-methyl-benzo[b]thiophene-2-carboxylic acid (2H-tetrazol-5-yl)-amide] | 235 nM
16 | COc1cc2sc(C(=O)Nc3nn[nH]n3)c(Oc3ccc(C(C)(C)C)cc3)c2cc1C [Example D.6, 3-(4-tert-Butyl-phenoxy)-6-methoxy-5-methyl-benzo[b]thiophene-2-carboxylic acid (2H-tetrazol-5-yl)-amide] | 890 nM
17 | COc1cc2sc(C(=O)Nc3nn[nH]n3)c(Oc3cccc(C(C)(C)C)c3)c2cc1C [Example D.7, 3-(3-tert-Butyl-phenoxy)-6-methoxy-5-methyl-benzo[b]thiophene-2-carboxylic acid (2H-tetrazol-5-yl)-amide] | 230 nM
18 | COc1cc2sc(C(=O)Nc3nnn[nH]3)c(Oc3ccc(CCCSc4ccc(Cl)cc4)cc3)c2cc1C [Example D.8, 3-{4-[3-(4-Chlorophenenyl)sulfanylpropyl]phenoxy}-6-methoxy-5-methylbenzo[b]thiophene-2-caboxylic acid(1H-tetrazolyl)amide trifluroacetic acid salt] | 2610 nM
19 | Cc1cc2sc(C(=O)Nc3nn[nH]n3)c(Oc3ccc(C4CCCCC4)cc3)c2cc1O [Example H.1, 3-(4-Cyclohexyl-phenoxy)-5-hydroxy-6-methyl-benzo[b]thiophene-2-carboxylic acid (2H-tetrazol-5-yl)-amide] | 28 nM
20 | Cc1cc2sc(C(=O)Nc3nn[nH]n3)c(Oc3ccc(C4CCCCC4)cc3)c2cc1OC(F)F [Example H.2, 3-(4-Cyclohexyl-phenoxy)-5-difluoromethoxy-6-methyl-benzo[b]thiophene-2-carboxylic acid (2H-tetrazol-5-yl)-amide] | 230 nM
21 | COc1cc2c(Oc3ccc(C4CCCCC4)cc3)c(C(=O)Nc3nnn(C)n3)sc2cc1C [Example K.1, 3-(4-Cyclohexyl-phenoxy)-5-methoxy-6-methyl-benzo[b]thiophene-2-carboxylic acid (2-methyl-2H-tetrazol-5-yl)-amide] | 1930 nM
22 | COc1cc2c(Oc3ccc(C4CCCCC4)cc3)c(C(=O)N(C)c3nn[nH]n3)sc2cc1C [Example K.2, 3-(4-Cyclohexyl-phenoxy)-5-methoxy-6-methyl-benzo[b]thiophene-2-carboxylic acid methyl-(2H-tetrazol-5-yl)-amide] | 1610 nM
23 | CCOc1cc2c(Oc3ccc(C4CCCCC4)cc3)c(C(=O)Nc3nnn[nH]3)sc2cc1C [Example L.1, 3-(4-cyclohexyl-phenoxy)-5-ethoxy-6-methyl-benzo[b]thiophene-2-carboxylic acid (1H-tetrazol-5-yl)-amide] | 115 nM
